Laboratory results published in patent US20240102991A1, “Synthetic Fluorescent Protein Biosensors and Use Thereof in Drug Screening Methods” (The Regents of the University of Colorado, a body corporate, priority 2017, published 2024).

System: biosensor expressing cells (HEK293T)
Format: cell-based, human

Cholera Toxin
biosensors that respond in some way to the single drug treatment: > 80%
